What was measured:
Assay in all cases: KINOMEscan competition binding
Details in all cases: compound 10.0 µM
ABL1 (human) = ABL1 (human) (UniProt P00519)
[1] = test system: ABL1 (human), P00519 [F317I]
AKT3 (human) = AKT3 (human) (UniProt Q9Y243)
ALK (human) = ALK (human) (UniProt Q9UM73)
AURKC (human) = AURKC (human) (UniProt Q9UQB9)
CAMK2B (human) = CAMK2B (human) (UniProt Q13554)
CAMK2D (human) = CAMK2D (human) (UniProt Q13557)
CAMK2G (human) = CAMK2G (human) (UniProt Q13555)
CDK5 (human) = CDK5 (human) (UniProt Q00535)
CDK7 (human) = CDK7 (human) (UniProt P50613)
CSNK1D (human) = CSNK1D (human) (UniProt P48730)
CSNK2A1 (human) = CSNK2A1 (human) (UniProt P68400)
DMPK (human) = DMPK (human) (UniProt Q09013)
EPHA2 (human) = EPHA2 (human) (UniProt P29317)
EPHA7 (human) = EPHA7 (human) (UniProt Q15375)
EPHB1 (human) = EPHB1 (human) (UniProt P54762)
[2] = test system: FLT3 (human), P36888 [D835Y]
[3] = test system: FLT3 (human), P36888 [N841I]
FRK (human) = FRK (human) (UniProt P42685)
HIPK3 (human) = HIPK3 (human) (UniProt Q9H422)
IKBKB (human) = IKBKB (human) (UniProt O14920)
[4] = biological target: JAK2 JH1 catalytic (human) (UniProt O60674)
[5] = test system: KIT (human), P10721 [V559D/V654A]
MAK (human) = MAK (human) (UniProt P20794)
MAP3K10 (human) = MAP3K10 (human) (UniProt Q02779)
MAPK11 (human) = MAPK11 (human) (UniProt Q15759)
MAPK4 (human) = MAPK4 (human) (UniProt P31152)
MINK1 (human) = MINK1 (human) (UniProt Q8N4C8)
MKNK2 (human) = MKNK2 (human) (UniProt Q9HBH9)
MLTK (human) = MLTK (human) (UniProt Q9NYL2)
MST1R (human) = MST1R (human) (UniProt Q04912)
NLK (human) = NLK (human) (UniProt Q9UBE8)
NUAK2 (human) = NUAK2 (human) (UniProt Q9H093)
OXSR1 (human) = OXSR1 (human) (UniProt O95747)
PI4KB (human) = PI4KB (human) (UniProt Q9UBF8)
PRKAA1 (human) = PRKAA1 (human) (UniProt Q13131)
ROCK1 (human) = ROCK1 (human) (UniProt Q13464)
SRMS (human) = SRMS (human) (UniProt Q9H3Y6)
SRPK1 (human) = SRPK1 (human) (UniProt Q96SB4)
STK36 (human) = STK36 (human) (UniProt Q9NRP7)
STK38 (human) = STK38 (human) (UniProt Q15208)
TNK2 (human) = TNK2 (human) (UniProt Q07912)
TNK2 (human), sequence (Q07912 whole entry, looked up): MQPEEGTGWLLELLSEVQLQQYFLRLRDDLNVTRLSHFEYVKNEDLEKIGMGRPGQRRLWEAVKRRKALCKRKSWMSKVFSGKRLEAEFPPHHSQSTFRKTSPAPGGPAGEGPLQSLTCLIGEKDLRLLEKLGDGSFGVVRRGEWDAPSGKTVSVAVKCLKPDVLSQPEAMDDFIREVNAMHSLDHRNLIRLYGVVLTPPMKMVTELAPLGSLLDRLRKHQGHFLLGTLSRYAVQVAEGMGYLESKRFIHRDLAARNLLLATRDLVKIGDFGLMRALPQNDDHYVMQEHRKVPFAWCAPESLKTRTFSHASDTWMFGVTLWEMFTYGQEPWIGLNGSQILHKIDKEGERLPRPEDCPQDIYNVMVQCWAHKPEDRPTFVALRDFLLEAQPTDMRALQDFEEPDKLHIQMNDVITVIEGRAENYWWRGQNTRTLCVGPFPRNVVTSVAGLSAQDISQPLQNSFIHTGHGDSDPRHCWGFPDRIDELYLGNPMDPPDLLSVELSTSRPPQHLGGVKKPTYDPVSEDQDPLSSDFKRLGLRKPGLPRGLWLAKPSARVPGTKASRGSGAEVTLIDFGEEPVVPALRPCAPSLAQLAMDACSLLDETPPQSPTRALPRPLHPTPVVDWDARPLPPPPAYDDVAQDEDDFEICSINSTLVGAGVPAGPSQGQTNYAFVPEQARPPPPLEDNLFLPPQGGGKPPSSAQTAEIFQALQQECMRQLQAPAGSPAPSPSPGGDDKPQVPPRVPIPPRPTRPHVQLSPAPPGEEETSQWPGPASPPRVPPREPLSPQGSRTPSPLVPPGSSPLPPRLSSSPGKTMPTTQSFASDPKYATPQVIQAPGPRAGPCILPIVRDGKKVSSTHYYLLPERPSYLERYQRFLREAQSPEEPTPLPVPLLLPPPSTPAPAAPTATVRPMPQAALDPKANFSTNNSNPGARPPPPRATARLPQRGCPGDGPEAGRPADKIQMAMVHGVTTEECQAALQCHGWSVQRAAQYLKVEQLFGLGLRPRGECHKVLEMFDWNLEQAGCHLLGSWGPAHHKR

JAK2 JH1 catalytic (human), sequence (O60674 whole entry, looked up): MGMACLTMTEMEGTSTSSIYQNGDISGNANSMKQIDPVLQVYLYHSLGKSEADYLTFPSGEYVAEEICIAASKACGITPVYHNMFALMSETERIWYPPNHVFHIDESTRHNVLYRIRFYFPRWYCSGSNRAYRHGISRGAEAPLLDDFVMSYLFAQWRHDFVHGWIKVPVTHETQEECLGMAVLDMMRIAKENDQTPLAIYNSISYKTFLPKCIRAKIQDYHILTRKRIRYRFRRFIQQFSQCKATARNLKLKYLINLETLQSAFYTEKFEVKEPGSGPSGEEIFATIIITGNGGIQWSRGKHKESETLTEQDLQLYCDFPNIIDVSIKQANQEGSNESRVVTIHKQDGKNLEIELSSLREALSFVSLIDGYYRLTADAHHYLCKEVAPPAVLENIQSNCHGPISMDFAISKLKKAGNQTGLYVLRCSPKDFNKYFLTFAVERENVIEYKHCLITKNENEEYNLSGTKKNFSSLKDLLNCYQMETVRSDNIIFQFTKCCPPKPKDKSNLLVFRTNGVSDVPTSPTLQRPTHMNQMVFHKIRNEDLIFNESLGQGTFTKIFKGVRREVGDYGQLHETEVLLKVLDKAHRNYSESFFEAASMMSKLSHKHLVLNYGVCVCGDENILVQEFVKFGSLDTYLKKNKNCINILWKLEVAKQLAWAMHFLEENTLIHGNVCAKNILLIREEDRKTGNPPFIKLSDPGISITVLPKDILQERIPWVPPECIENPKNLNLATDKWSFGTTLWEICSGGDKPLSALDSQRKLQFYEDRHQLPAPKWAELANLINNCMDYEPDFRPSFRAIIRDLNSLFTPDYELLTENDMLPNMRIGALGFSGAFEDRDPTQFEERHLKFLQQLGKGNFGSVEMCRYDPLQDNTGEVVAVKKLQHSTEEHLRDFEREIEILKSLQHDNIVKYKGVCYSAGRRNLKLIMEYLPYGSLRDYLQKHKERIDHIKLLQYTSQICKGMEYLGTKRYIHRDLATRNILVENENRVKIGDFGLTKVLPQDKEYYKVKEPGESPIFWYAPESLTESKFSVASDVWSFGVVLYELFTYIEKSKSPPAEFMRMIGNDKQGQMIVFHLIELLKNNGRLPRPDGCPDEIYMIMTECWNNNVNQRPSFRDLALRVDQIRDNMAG
MAK (human), sequence (P20794 whole entry, looked up): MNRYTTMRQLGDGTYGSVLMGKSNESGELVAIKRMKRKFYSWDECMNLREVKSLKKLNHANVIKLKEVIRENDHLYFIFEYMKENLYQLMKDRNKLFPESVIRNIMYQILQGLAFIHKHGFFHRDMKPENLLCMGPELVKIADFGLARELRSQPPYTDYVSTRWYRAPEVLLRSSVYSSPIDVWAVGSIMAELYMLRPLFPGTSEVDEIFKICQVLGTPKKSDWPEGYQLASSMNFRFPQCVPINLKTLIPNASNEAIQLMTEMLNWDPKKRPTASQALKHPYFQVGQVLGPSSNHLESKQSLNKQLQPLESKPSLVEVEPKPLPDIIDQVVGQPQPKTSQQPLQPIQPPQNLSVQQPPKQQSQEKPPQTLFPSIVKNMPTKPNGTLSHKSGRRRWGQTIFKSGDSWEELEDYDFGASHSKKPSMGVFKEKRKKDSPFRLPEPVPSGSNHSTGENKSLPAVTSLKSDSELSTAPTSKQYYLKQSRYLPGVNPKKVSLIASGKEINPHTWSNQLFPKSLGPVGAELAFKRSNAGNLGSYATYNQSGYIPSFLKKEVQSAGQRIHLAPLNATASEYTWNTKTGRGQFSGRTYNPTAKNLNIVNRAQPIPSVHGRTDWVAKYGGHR
AURKC (human), sequence (Q9UQB9 whole entry, looked up): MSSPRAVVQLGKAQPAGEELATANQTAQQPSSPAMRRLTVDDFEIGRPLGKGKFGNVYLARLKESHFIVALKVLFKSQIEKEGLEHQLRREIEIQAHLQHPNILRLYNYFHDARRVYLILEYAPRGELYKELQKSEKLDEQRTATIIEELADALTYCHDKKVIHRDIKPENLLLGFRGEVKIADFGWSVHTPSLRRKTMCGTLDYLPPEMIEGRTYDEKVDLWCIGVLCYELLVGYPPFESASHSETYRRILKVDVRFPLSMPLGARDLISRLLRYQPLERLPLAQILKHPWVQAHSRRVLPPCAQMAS
CAMK2G (human), sequence (Q13555 whole entry, looked up): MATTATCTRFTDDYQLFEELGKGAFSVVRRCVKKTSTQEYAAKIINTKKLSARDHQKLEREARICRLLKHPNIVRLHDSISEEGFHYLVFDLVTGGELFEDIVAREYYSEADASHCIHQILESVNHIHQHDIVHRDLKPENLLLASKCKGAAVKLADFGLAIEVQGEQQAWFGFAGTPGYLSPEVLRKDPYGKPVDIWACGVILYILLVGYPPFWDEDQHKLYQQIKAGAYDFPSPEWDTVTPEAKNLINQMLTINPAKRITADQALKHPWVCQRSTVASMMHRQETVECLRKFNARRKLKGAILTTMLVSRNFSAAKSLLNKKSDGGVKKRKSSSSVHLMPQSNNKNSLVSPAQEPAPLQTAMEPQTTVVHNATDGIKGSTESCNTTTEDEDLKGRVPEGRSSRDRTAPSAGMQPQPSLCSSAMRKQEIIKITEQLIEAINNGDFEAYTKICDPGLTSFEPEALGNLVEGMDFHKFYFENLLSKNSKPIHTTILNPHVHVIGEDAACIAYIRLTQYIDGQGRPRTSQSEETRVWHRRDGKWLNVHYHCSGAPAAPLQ
CAMK2B (human), sequence (Q13554 whole entry, looked up): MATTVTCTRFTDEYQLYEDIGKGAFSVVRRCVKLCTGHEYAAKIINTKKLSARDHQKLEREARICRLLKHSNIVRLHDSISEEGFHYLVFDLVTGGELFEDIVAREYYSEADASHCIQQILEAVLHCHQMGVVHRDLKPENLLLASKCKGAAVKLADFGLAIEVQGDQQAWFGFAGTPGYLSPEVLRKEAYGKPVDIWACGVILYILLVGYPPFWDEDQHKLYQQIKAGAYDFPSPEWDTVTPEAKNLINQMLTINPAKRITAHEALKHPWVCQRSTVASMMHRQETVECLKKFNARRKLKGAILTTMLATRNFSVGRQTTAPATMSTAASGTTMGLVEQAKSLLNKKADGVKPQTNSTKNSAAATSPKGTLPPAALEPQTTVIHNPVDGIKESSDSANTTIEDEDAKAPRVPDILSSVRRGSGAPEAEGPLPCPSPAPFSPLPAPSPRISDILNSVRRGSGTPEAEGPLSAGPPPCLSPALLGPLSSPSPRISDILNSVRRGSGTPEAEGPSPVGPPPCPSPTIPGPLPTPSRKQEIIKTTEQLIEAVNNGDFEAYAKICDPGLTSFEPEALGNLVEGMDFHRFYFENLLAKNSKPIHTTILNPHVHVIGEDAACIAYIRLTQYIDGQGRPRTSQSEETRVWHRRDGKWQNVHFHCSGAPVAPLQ
MKNK2 (human), sequence (Q9HBH9 whole entry, looked up): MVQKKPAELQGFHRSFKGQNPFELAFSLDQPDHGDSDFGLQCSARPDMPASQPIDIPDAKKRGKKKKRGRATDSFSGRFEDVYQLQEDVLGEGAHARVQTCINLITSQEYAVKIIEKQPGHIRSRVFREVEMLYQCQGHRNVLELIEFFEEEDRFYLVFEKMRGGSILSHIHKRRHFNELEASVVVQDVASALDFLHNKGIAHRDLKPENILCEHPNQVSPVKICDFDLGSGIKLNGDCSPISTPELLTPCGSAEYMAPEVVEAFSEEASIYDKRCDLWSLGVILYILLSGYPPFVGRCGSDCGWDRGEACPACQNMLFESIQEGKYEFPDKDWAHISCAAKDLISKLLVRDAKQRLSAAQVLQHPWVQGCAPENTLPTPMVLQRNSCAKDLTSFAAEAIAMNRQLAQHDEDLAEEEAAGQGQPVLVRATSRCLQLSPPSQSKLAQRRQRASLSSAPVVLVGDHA

## O=C1Nc2cc(Br)ccc2/C1=C1/Nc2ccccc2/C1=N\O
ABL1 (human)
  kinase still bound, per cent of control: 2.3%
[1]
  kinase still bound, per cent of control: 4.2%
AKT3 (human)
  kinase still bound, per cent of control: 100%
ALK (human)
  kinase still bound, per cent of control: 44%
AURKC (human)
  kinase still bound, per cent of control: 0.75%
CAMK2B (human)
  kinase still bound, per cent of control: 3.6%
CAMK2D (human)
  kinase still bound, per cent of control: 2.1%
CAMK2G (human)
  kinase still bound, per cent of control: 8.8%
CDK5 (human)
  kinase still bound, per cent of control: 9.5%
CDK7 (human)
  kinase still bound, per cent of control: 12%
CSNK1D (human)
  kinase still bound, per cent of control: 21%
CSNK2A1 (human)
  kinase still bound, per cent of control: 6.2%
DMPK (human)
  kinase still bound, per cent of control: 100%
EPHA2 (human)
  kinase still bound, per cent of control: 35%
EPHA7 (human)
  kinase still bound, per cent of control: 62%
EPHB1 (human)
  kinase still bound, per cent of control: 43%
[2]
  kinase still bound, per cent of control: 0%
[3]
  kinase still bound, per cent of control: 0%
FRK (human)
  kinase still bound, per cent of control: 2.6%
HIPK3 (human)
  kinase still bound, per cent of control: 12%
IKBKB (human)
  kinase still bound, per cent of control: 78%
[4]
  kinase still bound, per cent of control: 25%
[5]
  kinase still bound, per cent of control: 0.9%
MAK (human)
  kinase still bound, per cent of control: 0.8%
MAP3K10 (human)
  kinase still bound, per cent of control: 100%
MAPK11 (human)
  kinase still bound, per cent of control: 100%
MAPK4 (human)
  kinase still bound, per cent of control: 100%
MINK1 (human)
  kinase still bound, per cent of control: 6.2%
MKNK2 (human)
  kinase still bound, per cent of control: 28%
MLTK (human)
  kinase still bound, per cent of control: 26%
MST1R (human)
  kinase still bound, per cent of control: 100%
NLK (human)
  kinase still bound, per cent of control: 88%
NUAK2 (human)
  kinase still bound, per cent of control: 39%
OXSR1 (human)
  kinase still bound, per cent of control: 58%
PI4KB (human)
  kinase still bound, per cent of control: 39%
PRKAA1 (human)
  kinase still bound, per cent of control: 4%
ROCK1 (human)
  kinase still bound, per cent of control: 61%
SRMS (human)
  kinase still bound, per cent of control: 13%
SRPK1 (human)
  kinase still bound, per cent of control: 5%
STK36 (human)
  kinase still bound, per cent of control: 53%
STK38 (human)
  kinase still bound, per cent of control: 86%
TNK2 (human)
  kinase still bound, per cent of control: 28%

— the kinase profiling compilation of Christmann-Franck et al. (2016)
